Results from patent publication US4027014A, “Antibiotic BN-130 substances and the production thereof” (Meiji Seika Kaisha, Ltd., priority 1974, dated 1977).

Tested on: BN-130 strain
Assay: Susceptibility of the BN-130 strain to antibiotics
Format: cell-based, Pseudomonas stutzeri

Molecule	Susceptibility to antibiotics
O=C(N[C@H](CO)[C@H](O)c1ccc([N+](=O)[O-])cc1)C(Cl)Cl [Chloramphenicol]	Susceptible to a medium degree
CC1(C)S[C@@H]2[C@H](NC(=O)Cc3ccccc3)C(=O)N2[C@H]1C(=O)O [Penicillin]	Resistant
CN(C)[C@@H]1C(O)=C(C(N)=O)C(=O)[C@@]2(O)C(O)=C3C(=O)c4c(O)cccc4[C@@](C)(O)[C@H]3C[C@@H]12 [Tetracycline]	Susceptible
CC1(C)S[C@@H]2[C@H](NC(=O)[C@H](N)c3ccccc3)C(=O)N2[C@H]1C(=O)O [aminobenzylpenicillin]	Resistant
O=C(Cc1cccs1)N[C@@H]1C(=O)N2C(C(=O)[O-])=C(C[n+]3ccccc3)CS[C@H]12 [cephaloridine]	Resistant
NC[C@H]1O[C@H](O[C@H]2[C@H](O)[C@@H](O[C@H]3O[C@H](CO)[C@@H](O)[C@H](N)[C@H]3O)[C@H](N)C[C@@H]2N)[C@H](O)[C@@H](O)[C@@H]1O [kanamycin]	Susceptible to a medium degree
CCn1cc(C(=O)O)c(=O)c2ccc(C)nc21 [nalidixic acid]	Susceptible
[H]/N=C(/N)N[C@H]1[C@H](O)[C@@H](O)[C@H](O[C@@H]2O[C@@H](C)[C@](O)(C=O)[C@H]2O[C@@H]2O[C@@H](CO)[C@H](O)[C@@H](O)[C@@H]2NC)[C@@H](N/C(N)=N\[H])[C@@H]1O [streptomycin]	Susceptible to a medium degree
colistin	Susceptible
polymixin	Susceptible
